Source: US11053204B2, “Pyrimidinyloxy benzene derivatives as herbicides” (FMC Corporation, priority 2015, dated 2021)

Columns and labels:
Assay type in all cases: in vivo
[1] = system: pigweed (Amaranthus retroflexus); assay: Test C preemergence, plant response rating; conditions: Preemergence
[2] = system: Italian ryegrass (Lolium multiflorum); assay: Test A postemergence, visual injury rating; conditions: 0 is no effect, 100 is complete control
In short: (§1)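 Visual injury scored 0–100 (100 = complete control) against untreated controls about 10 days after treatment in a greenhouse. Test chemicals, formulated with surfactant in non-phytotoxic solvent, were sprayed on soil preemergence or on 2-10 cm, one- to two-leaf plants postemergence.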

[3] = system: barnyardgrass (Echinochloa crus-galli); assay: Test A postemergence, visual injury rating; conditions: 0 is no effect, 100 is complete control
In short: as §1

[4] = system: giant foxtail (Setaria faberii); assay: Test A postemergence, visual injury rating; conditions: 0 is no effect, 100 is complete control
In short: as §1

[5] = system: galium (catchweed bedstraw, Galium aparine); assay: Test A postemergence, visual injury rating; conditions: 0 is no effect, 100 is complete control
In short: as §1

[6] = system: pigweed (Amaranthus retroflexus); assay: Test A postemergence, visual injury rating; conditions: 0 is no effect, 100 is complete control
In short: as §1

[7] = system: ragweed (common ragweed, Ambrosia elatior); assay: Test A postemergence, visual injury rating; conditions: 0 is no effect, 100 is complete control
In short: as §1

corn (Zea mays) = assay: Test A postemergence, visual injury rating; conditions: 0 is no effect, 100 is complete control
In short: as §1

[8] = system: blackgrass (Alopecurus myosuroides); assay: Test A postemergence, visual injury rating; conditions: 0 is no effect, 100 is complete control
In short: as §1

[9] = system: wheat (Triticum aestivum); assay: Test A postemergence, visual injury rating; conditions: 0 is no effect, 100 is complete control
In short: as §1

kochia (Kochia scoparia) [10] = assay: Test A postemergence, visual injury rating; conditions: 0 is no effect, 100 is complete control
In short: as §1

[11] = system: Italian ryegrass (Lolium multiflorum); assay: Test A preemergence, visual injury rating; conditions: 0 to 100 scale (0 no effect, 100 complete control)
In short: as §1

[12] = system: barnyardgrass (Echinochloa crus-galli); assay: Test A preemergence, visual injury rating; conditions: 0 to 100 scale (0 no effect, 100 complete control)
In short: as §1

[13] = system: giant foxtail (Setaria faberii); assay: Test A preemergence, visual injury rating; conditions: 0 to 100 scale (0 no effect, 100 complete control)
In short: as §1

[14] = system: pigweed (Amaranthus retroflexus); assay: Test A preemergence, visual injury rating; conditions: 0 to 100 scale (0 no effect, 100 complete control)
In short: as §1

[15] = system: ragweed (common ragweed, Ambrosia elatior); assay: Test A preemergence, visual injury rating; conditions: 0 to 100 scale (0 no effect, 100 complete control)
In short: as §1

kochia (Kochia scoparia) [16] = assay: Test A preemergence, visual injury rating; conditions: 0 to 100 scale (0 no effect, 100 complete control)
In short: as §1

O=C(OCCC(F)(F)F)c1c(Cl)cccc1Oc1ncc(Cl)cn1 [Compound 15, 3,3,3-trifluoropropyl 2-chloro-6-[(5-chloro-2-pyrimidinyl)oxy]benzoate]
Plant response rating, Pigweed ([1]; 125 g ai/ha, scale of 0 to 100): 100
Plant response rating, Pigweed ([1]; 16 g ai/ha, scale 0 to 100): 98
Plant response rating, Pigweed ([1]; 31 g ai/ha, scale 0 to 100): 100
Plant response rating, Pigweed ([1]; 62 g ai/ha, scale 0 to 100): 100
pest or weed control at 125 g/ha ([2]; Lolium multiflorum, post-emergence, 240 h, 125 g ai/ha, read-out: Ryegrass, Italian plant response rating (0 to 100 scale)): 60%
pest or weed control at 500 g/ha ([2]; Lolium multiflorum, post-emergence, 240 h, 500 g ai/ha, read-out: Ryegrass, Italian plant response rating (0 to 100 scale)): 90%
pest or weed control at 125 g/ha ([3]; Echinochloa crus-galli, post-emergence, 240 h, 125 g ai/ha, read-out: Barnyardgrass plant response rating (0 to 100 scale)): 90%
pest or weed control at 500 g/ha ([3]; Echinochloa crus-galli, post-emergence, 240 h, 500 g ai/ha, read-out: Barnyardgrass plant response rating (0 to 100 scale)): 100%
pest or weed control at 125 g/ha ([4]; Setaria faberi, post-emergence, 240 h, 125 g ai/ha, read-out: Foxtail, Giant plant response rating (0 to 100 scale)): 90%
pest or weed control at 500 g/ha ([4]; Setaria faberi, post-emergence, 240 h, 500 g ai/ha, read-out: Foxtail, Giant plant response rating (0 to 100 scale)): 100%
pest or weed control at 125 g/ha ([5]; Galium, post-emergence, 240 h, 125 g ai/ha, read-out: Galium plant response rating (0 to 100 scale)): 100%
pest or weed control at 500 g/ha ([5]; Galium, post-emergence, 240 h, 500 g ai/ha, read-out: Galium plant response rating (0 to 100 scale)): 100%
pest or weed control at 125 g/ha ([6]; Amaranthus retroflexus, post-emergence, 240 h, 125 g ai/ha, read-out: Pigweed plant response rating (0 to 100 scale)): 100%
pest or weed control at 500 g/ha ([6]; Amaranthus retroflexus, post-emergence, 240 h, 500 g ai/ha, read-out: Pigweed plant response rating (0 to 100 scale)): 100%
pest or weed control at 125 g/ha ([7]; Ambrosia artemisiifolia, post-emergence, 240 h, 125 g ai/ha, read-out: Ragweed plant response rating (0 to 100 scale)): 20%
pest or weed control at 500 g/ha ([7]; Ambrosia artemisiifolia, post-emergence, 240 h, 500 g ai/ha, read-out: Ragweed plant response rating (0 to 100 scale)): 40%
plant injury at 125 g/ha (corn (Zea mays); Zea mays, post-emergence, 240 h, 125 g ai/ha, read-out: Corn plant response rating (0 to 100 scale)): 50%
plant injury at 500 g/ha (corn (Zea mays); Zea mays, post-emergence, 240 h, 500 g ai/ha, read-out: Corn plant response rating (0 to 100 scale)): 90%
pest or weed control at 125 g/ha ([8]; Alopecurus myosuroides, post-emergence, 240 h, 125 g ai/ha, read-out: Blackgrass plant response rating (0 to 100 scale)): 90%
pest or weed control at 500 g/ha ([8]; Alopecurus myosuroides, post-emergence, 240 h, 500 g ai/ha, read-out: Blackgrass plant response rating (0 to 100 scale)): 100%
plant injury at 125 g/ha ([9]; Triticum aestivum, post-emergence, 240 h, 125 g ai/ha, read-out: Wheat plant response rating (0 to 100 scale)): 20%
plant injury at 500 g/ha ([9]; Triticum aestivum, post-emergence, 240 h, 500 g ai/ha, read-out: Wheat plant response rating (0 to 100 scale)): 100%
pest or weed control at 125 g/ha (kochia (Kochia scoparia) [10]; Bassia scoparia, post-emergence, 240 h, 125 g ai/ha, read-out: Kochia plant response rating (0 to 100 scale)): 100%
pest or weed control at 500 g/ha (kochia (Kochia scoparia) [10]; Bassia scoparia, post-emergence, 240 h, 500 g ai/ha, read-out: Kochia plant response rating (0 to 100 scale)): 100%
pest or weed control at 125 g/ha ([11]; Lolium multiflorum, pre-emergence, 240 h, 125 g ai/ha, read-out: Ryegrass, Italian plant response rating): 40%
pest or weed control at 500 g/ha ([11]; Lolium multiflorum, pre-emergence, 240 h, 500 g ai/ha, read-out: Ryegrass, Italian plant response rating): 90%
pest or weed control at 125 g/ha ([12]; Echinochloa crus-galli, pre-emergence, 240 h, 125 g ai/ha, read-out: Barnyardgrass plant response rating): 100%
pest or weed control at 500 g/ha ([12]; Echinochloa crus-galli, pre-emergence, 240 h, 500 g ai/ha, read-out: Barnyardgrass plant response rating): 100%
pest or weed control at 125 g/ha ([13]; Setaria faberi, pre-emergence, 240 h, 125 g ai/ha, read-out: Foxtail, Giant plant response rating): 100%
pest or weed control at 500 g/ha ([13]; Setaria faberi, pre-emergence, 240 h, 500 g ai/ha, read-out: Foxtail, Giant plant response rating): 100%
pest or weed control at 125 g/ha ([14]; Amaranthus retroflexus, pre-emergence, 240 h, 125 g ai/ha, read-out: Pigweed plant response rating): 100%
pest or weed control at 500 g/ha ([14]; Amaranthus retroflexus, pre-emergence, 240 h, 500 g ai/ha, read-out: Pigweed plant response rating): 100%
pest or weed control at 125 g/ha ([15]; Ambrosia artemisiifolia, pre-emergence, 240 h, 125 g ai/ha, read-out: Ragweed plant response rating): 0%
pest or weed control at 500 g/ha ([15]; Ambrosia artemisiifolia, pre-emergence, 240 h, 500 g ai/ha, read-out: Ragweed plant response rating): 10%
pest or weed control at 125 g/ha (kochia (Kochia scoparia) [16]; Bassia scoparia, pre-emergence, 240 h, 125 g ai/ha, read-out: Kochia plant response rating): 100%
pest or weed control at 500 g/ha (kochia (Kochia scoparia) [16]; Bassia scoparia, pre-emergence, 240 h, 500 g ai/ha, read-out: Kochia plant response rating): 100%

O=C(OCC(F)(F)F)c1c(Br)cccc1Oc1ncc(Cl)cn1 [Compound 35]
Ryegrass, Italian plant response rating (0 to 100 scale) ([2]; 125 g ai/ha): 0
Ryegrass, Italian plant response rating (0 to 100 scale) ([2]; 500 g ai/ha): 40
Barnyardgrass plant response rating (0 to 100 scale) ([3]; 125 g ai/ha): 10
Barnyardgrass plant response rating (0 to 100 scale) ([3]; 500 g ai/ha): 80
Foxtail, Giant plant response rating (0 to 100 scale) ([4]; 125 g ai/ha): 40
Foxtail, Giant plant response rating (0 to 100 scale) ([4]; 500 g ai/ha): 100
Galium plant response rating (0 to 100 scale) ([5]; 125 g ai/ha): 60
Galium plant response rating (0 to 100 scale) ([5]; 500 g ai/ha): 100
Pigweed plant response rating (0 to 100 scale) ([6]; 125 g ai/ha): 100
Pigweed plant response rating (0 to 100 scale) ([6]; 500 g ai/ha): 100
Ragweed plant response rating (0 to 100 scale) ([7]; 125 g ai/ha): 0
Ragweed plant response rating (0 to 100 scale) ([7]; 500 g ai/ha): 0
Corn plant response rating (0 to 100 scale) (corn (Zea mays); 125 g ai/ha): 20
Corn plant response rating (0 to 100 scale) (corn (Zea mays); 500 g ai/ha): 30
Blackgrass plant response rating (0 to 100 scale) ([8]; 125 g ai/ha): 40
Blackgrass plant response rating (0 to 100 scale) ([8]; 500 g ai/ha): 80
Wheat plant response rating (0 to 100 scale) ([9]; 125 g ai/ha): 0
Wheat plant response rating (0 to 100 scale) ([9]; 500 g ai/ha): 20
Kochia plant response rating (0 to 100 scale) (kochia (Kochia scoparia) [10]; 125 g ai/ha): 90
Kochia plant response rating (0 to 100 scale) (kochia (Kochia scoparia) [10]; 500 g ai/ha): 100
Ryegrass, Italian plant response rating ([11]; 125 g ai/ha): 0
Ryegrass, Italian plant response rating ([11]; 500 g ai/ha): 30
Barnyardgrass plant response rating ([12]; 125 g ai/ha): 70
Barnyardgrass plant response rating ([12]; 500 g ai/ha): 90
Foxtail, Giant plant response rating ([13]; 125 g ai/ha): 100
Foxtail, Giant plant response rating ([13]; 500 g ai/ha): 100
Pigweed plant response rating ([14]; 125 g ai/ha): 100
Pigweed plant response rating ([14]; 500 g ai/ha): 100
Ragweed plant response rating ([15]; 125 g ai/ha): 0
Ragweed plant response rating ([15]; 500 g ai/ha): 0
Kochia plant response rating (kochia (Kochia scoparia) [16]; 125 g ai/ha): 30
Kochia plant response rating (kochia (Kochia scoparia) [16]; 500 g ai/ha): 80
